The values that follow come from patent US10870875B2, “Metalloprotein compositions” (Commonwealth Scientific and Industrial Research Organisation, priority 2014, dated 2020).

The target of experiment [1] is T1, Apis mellifera AmelF3 (SEQ ID NO: 39) variant Tyr76Ala (Apis mellifera, UniProt A0ACM8QI31, Y95A).
T1 construct: sponge or film
Put plainly: Binding of chelates to AmelF3 Tyr76Ala sponges or films. The conditions noted are these: sponge washed with aqueous methanol, qualitative. How it is done: (§1) Site directed mutagenesis of honeybee silk proteins was carried using methods known to the person skilled in the art. For example, to generate AmelF3 Tyr76Ala, the forward primer 5′-[…]-3′ (SEQ ID NO: 80) with the corresponding reverse primer was employed and site directed mutagenesis was carried out using Pfx 50 DNA polymerase from Invitrogen following the Pfx50 manufactures instructions. All AmelF3 mutants were expressed and purified using a similar procedure as the unmodified AmelF3 silk protein. To generate AmelF3 Tyr76His, the forward primer 5′-[…]-3′ (SEQ ID NO: 81) with the corresponding reverse primer was employed. To generate AmelF3 Ala97His, the forward primer 5′-[…]-3′ (SEQ ID NO: 82) was used.
To test whether Tyr76 was indeed the coordinating ligand, the present inventors replaced Tyr76 with an alanine using site directed mutagenesis of the AmelF3 silk gene.

The target of experiment [2] is T2, recombinant honeybee (Apis mellifera) silk protein AmelF3, unmodified, SEQ ID NO: 39 (Apis mellifera, UniProt A0ACM8QI31).
T2 construct: sponges and films
T2 sequence (A0ACM8QI31 entry or part of it): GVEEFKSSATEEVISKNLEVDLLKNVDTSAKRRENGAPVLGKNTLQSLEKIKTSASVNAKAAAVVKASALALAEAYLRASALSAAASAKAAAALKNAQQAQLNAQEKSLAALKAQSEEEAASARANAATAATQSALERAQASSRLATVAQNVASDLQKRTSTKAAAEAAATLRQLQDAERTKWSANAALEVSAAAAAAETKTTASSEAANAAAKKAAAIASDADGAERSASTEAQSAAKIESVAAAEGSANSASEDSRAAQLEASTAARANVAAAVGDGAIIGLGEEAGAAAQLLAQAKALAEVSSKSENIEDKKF
Put plainly: Binding of macrocycles/chelates to AmelF3 sponges or films (colour retained after washing, UV/Vis). The conditions noted are these: sponge or film, qualitative. How it is done:
(§2) Full length, recombinant honeybee silk proteins (AmelF3) without affinity purification tags, were produced by fermentation in Escherichia coli as described in Weisman et al. (2010). Full length, recombinant Weaver Ant/Green Ant (Oecophylla smaragdina) silk proteins (GA1, GA2, GA3, GA4) without affinity purification tags, were produced by fermentation in Escherichia coli following the same procedures as outlined in Weisman et al. (2010).
AmelF3 sponges were prepared as described in example 1. […] The colour change observed with honeybee silk indicates a change in the coordination of the iron metal centre within the haem group, producing a material with a similar coordination to red haemoglobin. The colour was not removed by extensive washing with 70% methanol, 0.1M HCl or 0.1M NaCl.
An embodiment of the composition of the present invention was formed by co-drying a solution of AmelF3 and haem b. Briefly, 2 mg haem b and 20 mg AmelF3 silk sponge was dissolved in 1 mL of HFIP overnight at room temperature. The solution was aliquoted into either a cuvette or 24-well plate and dried at room temperature. The dried film was soaked overnight in 70% methanol to make the film insoluble in water.
(§3) Alternatively, haem b was ‘leached’ into a pre-formed film. The AmelF3 material was formed as described in example 1. The silk material was soaked in a solution of haem b (0.5 mg/mL; haem b in excess) in 70% methanol solution for between 1 and 48 hours followed by washing with 70% methanol to remove any unbound haem b and dried at room temperature.
AmelF3 films with different ratios of haem b to AmelF3 were prepared by co-drying haem and AmelF3 HFIP solutions. At low haem loadings (haem:protein molar ratios of 1:1 and 1:2), a sharp Soret peak at 404 nm was observed, indicative of all the haem being coordinated (FIG. 3). As the concentration of haem b relative to the protein was increased, the Soret peak broadened and shifted to lower wavelengths indicating an increase in the amount of uncoordinated haem (FIG. 3).
The ability of sponges generated from recombinant AmelF3 to bind a range of macrocyles was tested by adding a solution of the macrocmacrocycle containing an excess of the macrocycle to be tested to the AmelF3 sponge and observing the colour of the sponge and whether the sponge retained colour after washing. The strength of macrocycle binding was assessed qualitatively by assessing the intensity of the colour retained by the sponge after washing. Strong binding to the sponge refers to the finding that the macrocycle cannot be washed out with aqueous methanol, organic solvents, 0.1 M HCl or 0.1 M NaOH.
Films generated from recombinant honeybee silk protein AmelF3 containing dicyanocobyrinic acid heptamethyl ester were prepared as described in example 3. UV/Vis spectrum were recorded for a film generated from recombinant AmelF3 containing dicyanocobyrinic acid heptamethyl ester and a solution of dicyanocobyrinic acid heptamethyl ester without AmelF3 (FIG. 8).

Experiment [3] addresses T3, Oecophylla smaragdina silk fibroin 1 (GA1), SEQ ID NO: 9 (Oecophylla smaragdina, UniProt A8IM81).
T3 construct: film
T3 sequence (A8IM81 20-391): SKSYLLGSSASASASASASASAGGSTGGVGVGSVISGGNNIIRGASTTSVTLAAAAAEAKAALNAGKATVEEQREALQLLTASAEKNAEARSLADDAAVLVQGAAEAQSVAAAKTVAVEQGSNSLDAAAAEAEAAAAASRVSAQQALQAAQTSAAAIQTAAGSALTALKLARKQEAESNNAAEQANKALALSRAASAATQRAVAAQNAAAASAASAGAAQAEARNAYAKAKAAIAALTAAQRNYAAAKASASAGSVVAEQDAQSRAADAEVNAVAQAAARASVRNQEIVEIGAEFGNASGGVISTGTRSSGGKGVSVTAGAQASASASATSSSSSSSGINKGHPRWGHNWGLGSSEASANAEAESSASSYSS
Put plainly: Haem b leached into green ant silk GA1 film. Type of experiment: binding. The note with it: signal at around 400 nm.
Text: as §2, §3
Transparent films from the Green Ant (Oecophylla smaragdina) (GA1-4) silk proteins were prepared as described above. Haem b in 70% methanol was leached into the preformed Green Ant silk film as described at Example 3. UV/Vis spectra were collected for Green Ant silk film after haem b had been leached.

Experiment [4] addresses T4, Apis mellifera AmelF3 (SEQ ID NO: 39) variant Y76H A97H (Apis mellifera, UniProt A0ACM8QI31, A116H/Y95H).
T4 sequence (A0ACM8QI31 20-335 Y95H/A116H): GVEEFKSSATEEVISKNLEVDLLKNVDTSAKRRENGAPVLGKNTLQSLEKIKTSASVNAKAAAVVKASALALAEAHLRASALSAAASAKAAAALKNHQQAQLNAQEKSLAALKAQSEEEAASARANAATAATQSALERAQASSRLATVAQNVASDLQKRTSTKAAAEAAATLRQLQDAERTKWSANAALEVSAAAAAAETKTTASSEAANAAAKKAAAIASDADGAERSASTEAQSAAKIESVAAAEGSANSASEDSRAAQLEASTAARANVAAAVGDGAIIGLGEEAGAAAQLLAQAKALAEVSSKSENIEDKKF
Put plainly: Binding of heme to AmelF3 Y76H A97H. The note with it: Soret peak vs heme ratio. How it is done: as §1
A coordinating His residue (His97) was introduced into AmelF3 with Y76H substitution in the a-position of the coiled-coil.

T1 sequence (A0ACM8QI31 entry or part of it Y95A): as the sequence (A0ACM8QI31 entry or part of it) above, with Y76A counted along it

Consider `C=CC1=C(C)c2cc3[nH]c(cc4nc(cc5[nH]c(cc1n2)c(C)c5CCC(=O)O)C(CCC(=O)O)=C4C)c(C)c3C=C.[Fe]` [haem b], for which the “binding to silk protein (in words)” value in experiment [1] is “bound to the silk protein, the metal ion was not coordinated to the polypeptide”; in experiment [2] it was “strongly bound”. Also, in experiment [3], the “haem binding (in words)” value is “strongly bound haem”. In experiment [4], the “number of heme cofactors bound” value is “two”.
